Test results from patent US10335382B2, “Use of hydrogen sulfide synthesis inhibitors for cancer therapy” (THE BOARD OF REGENTS OF THE UNIVERSITY OF TEXAS SYSTEM, priority 2013, dated 2019).

Tests used:
HCT116 colon cancer cell = HCT116 colon cancer cell proliferation (xCELLigence); format: cell-based, human; conditions: AOAA 1 mM; 36 hours
CBS [1] = molecular target: T1, CBS (Homo sapiens, UniProt P35520); assay: H2S production in colon cancer tissue extracts (methylene blue method); format: biochemical; set-up: from tissue; host or cells: human colorectal tumor tissue and patient-matched normal mucosa homogenates; conditions: AOAA 1 mM; L-cysteine 3 mM, L-homocysteine 0.5 mM, 37° C., 30 min
T1 sequence (P35520 1-551): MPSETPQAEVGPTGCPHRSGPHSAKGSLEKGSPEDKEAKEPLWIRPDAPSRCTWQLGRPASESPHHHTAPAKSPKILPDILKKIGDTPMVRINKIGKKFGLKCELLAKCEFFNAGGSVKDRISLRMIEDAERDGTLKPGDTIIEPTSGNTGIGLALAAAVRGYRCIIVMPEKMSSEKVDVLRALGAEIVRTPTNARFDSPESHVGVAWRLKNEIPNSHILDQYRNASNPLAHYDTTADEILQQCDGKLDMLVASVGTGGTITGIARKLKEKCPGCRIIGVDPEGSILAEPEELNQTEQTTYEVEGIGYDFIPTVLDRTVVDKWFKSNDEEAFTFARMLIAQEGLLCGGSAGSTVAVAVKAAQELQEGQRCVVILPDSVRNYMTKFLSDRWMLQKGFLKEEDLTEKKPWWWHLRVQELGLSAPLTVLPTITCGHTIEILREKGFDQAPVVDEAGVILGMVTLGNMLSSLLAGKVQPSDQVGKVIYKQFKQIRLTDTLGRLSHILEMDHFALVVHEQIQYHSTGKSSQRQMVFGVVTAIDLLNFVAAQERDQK
Text: FIG. 1. CBS is overexpressed in human colorectal cancer. (A) Representative Western blot of CBS, CSE and 3-MST protein expression in human colorectal cancer specimens, paired with the corresponding normal mucosa tissues. PVDF membranes were probed with rabbit polyclonal antibodies against CBS, CSE and 3-MST. […] (C, D) CBS was highly expressed in three different colon cancer cell lines (LoVo, HCT116 and HT29); low expression was detected in the non-tumorigenic normal colon mucosa cells (NCM356) (arbitrary relative densitometric units were normalized with β-actin using image analysis software) (*p<0.05 vs NCM356 cells) (E) or in colon cancer cell lines (F) by the methylene blue method. H2S production was stimulated in tissue or cell lysates by incubation at 37° C. (30 min) in presence of the CBS substrates L-cysteine (3 mM) and L-homocysteine (0.5 mM). […] Western blots show representatives of at least n=3 experiments; H2S measurements represent mean±SEM of at least n=3 determinations.
H2S production can be measured in a tissue homogenate by using a methylene blue assay. Briefly, 1% zinc acetate is added to a tissue homogenate to trap H2S followed by 10% trichloroacetic acid to precipitate proteins. […] The absorbance of the resulting solution is measured at 655 nm. H2S content is calculated against a calibration curve of standard H2S solutions. […]

CBS [2] = molecular target: T1, CBS; set-up: These studies used full-length human CBS enzyme; made in house; host or cells: E. coli BL21 (DE3) Codon Plus; conditions: cited from earlier work

Structure (SMILES): NOCC(=O)O [AOAA, aminooxyacetic acid]
- HCT116 cell proliferation (HCT116 colon cancer cell): markedly reduced
- H2S-producing activity of CBS in tissue extracts (CBS [1]): blocked the H2S-producing activity
- concentrations exerting inhibitory effects on human recombinant CBS (CBS [2]): low micromolar concentrations
